Test results taken from PMC9588780, “Purification and structural characterization of the Na^+-translocating ferredoxin: NAD^+ reductase (Rnf) complex of Clostridium tetanomorphum” (Nature Communications, 2022).

Tests used:
[1] = target: T1, Rnf complex (RnfABCDEG), RnfG site (Clostridium tetanomorphum, UniProt A0A923J084); test: cryo-EM structure ([…] Å); UV fluorescence on SDS-PAGE; type: binding; conditions: covalent; phosphoester to Thr164 of RnfG
T1 construct: native six-subunit membrane complex purified from C. tetanomorphum, in MSP1D1/DMPC nanodisc; RnfG 20 kDa; with Ion-translocating oxidoreductase complex subunit A; Ion-translocating oxidoreductase complex subunit B; Ion-translocating oxidoreductase complex subunit C; Ion-translocating oxidoreductase complex subunit D; Ion-translocating oxidoreductase complex subunit E

[2] = target: T2, Rnf complex (RnfABCDEG), RnfD site (Clostridium tetanomorphum, UniProt A0A923IYK2); test: cryo-EM structure ([…] Å); type: binding
T2 construct: native six-subunit membrane complex purified from C. tetanomorphum, in MSP1D1/DMPC nanodisc; RnfD 33 kDa; with Ion-translocating oxidoreductase complex subunit A; Ion-translocating oxidoreductase complex subunit B; Ion-translocating oxidoreductase complex subunit C; Ion-translocating oxidoreductase complex subunit E; Ion-translocating oxidoreductase complex subunit G

[3] = target: T3, Rnf complex (RnfABCDEG), RnfC site (Clostridium tetanomorphum, UniProt A0A923IZ11); test: NADH oxidation, hexacyanoferrate(III) reduction at […] nm; type: biochemical; conditions: 200 µM NADH, 100 µM hexacyanoferrate(III), 150 mM NaCl, 50 mM potassium phosphate pH 7.5, 0.05% DDM, room temperature, anaerobic
T3 construct: gene rsxC; native six-subunit membrane complex purified from C. tetanomorphum in DDM (MSP1D1/DMPC nanodisc for cryo-EM); RnfC 1-435, 47 kDa; complex ca. 200-250 kDa; with Ion-translocating oxidoreductase complex subunit A; Ion-translocating oxidoreductase complex subunit B; Ion-translocating oxidoreductase complex subunit D; Ion-translocating oxidoreductase complex subunit E; Ion-translocating oxidoreductase complex subunit G

[4] = target: T3, Rnf complex (RnfABCDEG), RnfC site; test: coupled enzyme assay with Etf/butyryl-CoA dehydrogenase, […] nm; type: biochemical; conditions: reduced ferredoxin as electron donor (50 µM Fd), crotonyl-CoA, room temperature
[5] = target: T4, RnfD subunit of the Na+-translocating ferredoxin:NAD+ reductase (Rnf) complex of Clostridium tetanomorphum (Clostridium tetanomorphum (endogenous …, UniProt A0A923IYK2 1-310, FMN covalently attached by its phospho group to the Thr153 hydroxy group)); test: cryo-EM structure; native Rnf complex of C. tetanomorphum reconstituted into a DMPC-filled MSP1D1 nanodisc; grids prepared in an anaerobic tent (95% N2, 5% H2); 88,423 particles, overall resolution 4.27 Å; conditions: both partners purified
T4 construct: native subunit of the purified Rnf complex; Also holds a riboflavin
T4 sequence (looked up): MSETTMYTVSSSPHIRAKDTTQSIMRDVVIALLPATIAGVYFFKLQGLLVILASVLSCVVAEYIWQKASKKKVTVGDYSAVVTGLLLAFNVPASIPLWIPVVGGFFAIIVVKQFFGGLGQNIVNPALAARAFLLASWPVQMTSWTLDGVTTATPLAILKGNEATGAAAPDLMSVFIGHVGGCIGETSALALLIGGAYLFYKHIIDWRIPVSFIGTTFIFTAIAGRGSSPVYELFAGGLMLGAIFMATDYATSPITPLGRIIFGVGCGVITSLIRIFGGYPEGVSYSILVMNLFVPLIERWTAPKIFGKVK

T3 sequence (A0A923IZ11 1-435, one chain of several): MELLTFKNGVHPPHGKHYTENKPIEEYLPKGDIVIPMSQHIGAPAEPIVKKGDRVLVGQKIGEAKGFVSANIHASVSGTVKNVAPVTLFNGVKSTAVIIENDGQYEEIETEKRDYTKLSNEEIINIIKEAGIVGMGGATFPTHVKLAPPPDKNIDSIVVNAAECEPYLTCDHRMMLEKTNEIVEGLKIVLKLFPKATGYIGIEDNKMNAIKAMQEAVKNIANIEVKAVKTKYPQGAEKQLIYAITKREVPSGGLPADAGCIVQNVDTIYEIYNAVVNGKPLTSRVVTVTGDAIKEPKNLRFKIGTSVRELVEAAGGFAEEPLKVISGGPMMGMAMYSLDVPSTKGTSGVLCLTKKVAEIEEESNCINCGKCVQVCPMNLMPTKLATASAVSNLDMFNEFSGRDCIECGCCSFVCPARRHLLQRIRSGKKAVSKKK
T3 sequence (A0A923J0P9 1-191 partner, one chain of several): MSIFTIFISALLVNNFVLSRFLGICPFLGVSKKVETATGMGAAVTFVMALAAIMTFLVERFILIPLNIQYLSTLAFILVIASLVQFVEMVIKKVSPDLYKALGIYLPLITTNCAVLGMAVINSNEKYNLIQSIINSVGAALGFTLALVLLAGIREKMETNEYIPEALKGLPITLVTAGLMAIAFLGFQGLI
T3 sequence (A0A923IZB8 1-202 partner, one chain of several): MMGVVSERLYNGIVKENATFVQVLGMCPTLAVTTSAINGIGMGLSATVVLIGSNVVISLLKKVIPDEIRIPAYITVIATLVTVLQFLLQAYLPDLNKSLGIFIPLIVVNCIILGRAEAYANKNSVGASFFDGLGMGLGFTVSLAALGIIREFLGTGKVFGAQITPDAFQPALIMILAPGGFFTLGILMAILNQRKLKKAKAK
T3 sequence (A0A923J084 1-189 partner, one chain of several): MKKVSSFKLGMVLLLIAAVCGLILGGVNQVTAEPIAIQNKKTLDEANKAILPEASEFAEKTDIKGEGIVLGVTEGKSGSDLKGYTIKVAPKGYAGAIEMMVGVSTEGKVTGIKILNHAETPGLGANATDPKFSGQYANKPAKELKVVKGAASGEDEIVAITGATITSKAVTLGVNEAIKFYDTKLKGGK
T2 sequence (A0A923IZ11 1-435 partner, one chain of several): as the sequence (A0A923IZ11 1-435, one chain of several) above
T2 sequence (A0A923J0P9 1-191 partner, one chain of several): as the sequence (A0A923J0P9 1-191 partner, one chain of several) above
T2 sequence (A0A923IZB8 1-202 partner, one chain of several): as the sequence (A0A923IZB8 1-202 partner, one chain of several) above
T2 sequence (A0A923J084 1-189 partner, one chain of several): as the sequence (A0A923J084 1-189 partner, one chain of several) above
T1 sequence (A0A923J084 1-189, one chain of several): as the sequence (A0A923J084 1-189 partner, one chain of several) above
T1 sequence (A0A923J0P9 1-191 partner, one chain of several): as the sequence (A0A923J0P9 1-191 partner, one chain of several) above
T1 sequence (A0A923IZB8 1-202 partner, one chain of several): as the sequence (A0A923IZB8 1-202 partner, one chain of several) above
T1 sequence (A0A923IZ11 1-435 partner, one chain of several): as the sequence (A0A923IZ11 1-435, one chain of several) above

Cc1cc2nc3c(=O)[nH]c(=O)nc-3n(C[C@H](O)[C@H](O)[C@H](O)COP(=O)(O)O)c2cc1C [FMN]
cryo-EM structure (4.27 Å); UV fluorescence on SDS-PAGE [1]: FMN is covalently attached via its phospho group to the conserved Thr164
cryo-EM structure (4.27 Å) ([2]; covalent, phosphoester to Thr153 of RnfD (covalent FMN seen in structure; RnfD band not detected by UV on SDS-PAGE)): The phospho group of FMNRnfD is covalently attached to the well-conserved Thr153 hydroxy group

NC(=O)C1=CN([C@@H]2O[C@H](COP(=O)(O)OP(=O)(O)OC[C@H]3O[C@@H](n4cnc5c(N)ncnc54)[C@H](O)[C@@H]3O)[C@@H](O)[C@H]2O)C=CC1 [NADH]
NADH oxidation, hexacyanoferrate(III) reduction at 420 nm [3]: using hexacyanoferrate(III) as electron acceptor for NADH oxidation

NC(=O)c1ccc[n+]([C@@H]2O[C@H](COP(=O)(O)OP(=O)(O)OC[C@H]3O[C@@H](n4cnc5c(N)ncnc54)[C@H](O)[C@@H]3O)[C@@H](O)[C@H]2O)c1 [NAD^+]
coupled enzyme assay with Etf/butyryl-CoA dehydrogenase, 340 nm [4]: The biological relevant NAD^+ reduction with Fdred was determined with a coupled enzyme assay

Cc1cc2nc3c(=O)[nH]c(=O)nc-3n(C[C@H](O)[C@H](O)[C@H](O)CO)c2cc1C [RBF, riboflavin]
cryo-EM structure (4.27 Å) ([2]; cytoplasmic half-channel pocket of RnfD near Asn124 and Asp248, density assigned with help of A. vinelandii Rnf structure): the density becomes interpretable as riboflavin

B1: RnfB subunit of the Na+-translocating ferredoxin:NAD+ reductase (Rnf) complex of Clostridium tetanomorphum (natural protein, UniProt A0A923E755 1-274, looked up)
chain: MEGLLFPVLSLGGLGVVFGLLLGYASKKFAVEVDERVPMVRAALPGANCGGCGFAGCDAYADAVVNAGAKPNGCPVGGAACAAKIAEIMGVVVDSSEPKKAYVKCQGTCDKAKEKYEYYGAMTCVDAANIPGAGSKTCGFGCLGLGSCVQVCAFDAIHVENGIAVVDEEACTGCGACVSICPKSVIELTPMSKKVRISCNSHDKGIEVKNACSVGCLSCGLCVRNCPSEAITMVNNLPVIDYDKCTQCGVCVGKCPTKAIVNLNTNVSKEASNN
notes: native subunit of the purified Rnf complex; Carries five reliably identified [4Fe-4S] clusters; a sixth in FdI is held likely; also called ferredoxin subunit RnfB
binding result [5]: binds
